The results in this text go back to ChEMBL document CHEMBL1201862, “PubChem BioAssay data set” (2004).

Activity calls are given as the source filed them.

A word on the IC50: it is the concentration that gives 50% inhibition. One may read the EC50 as the concentration that produces a half-maximal response. For orientation: AC50 means the concentration at which the activity in the assay is half-maximal.

The subject of one test is Saccharomyces cerevisiae. Kind of test: S. cerevisiae Caspase-1/ASC signal blockers IC50, NALP1 inhibitor project selectivity test (AID 488863). In kind it is functional, organism-based.
For test [1], the target named is T1, Calpain-2 catalytic subunit (Sus scrofa, UniProt P43367).
T1 sequence (P43367 whole entry): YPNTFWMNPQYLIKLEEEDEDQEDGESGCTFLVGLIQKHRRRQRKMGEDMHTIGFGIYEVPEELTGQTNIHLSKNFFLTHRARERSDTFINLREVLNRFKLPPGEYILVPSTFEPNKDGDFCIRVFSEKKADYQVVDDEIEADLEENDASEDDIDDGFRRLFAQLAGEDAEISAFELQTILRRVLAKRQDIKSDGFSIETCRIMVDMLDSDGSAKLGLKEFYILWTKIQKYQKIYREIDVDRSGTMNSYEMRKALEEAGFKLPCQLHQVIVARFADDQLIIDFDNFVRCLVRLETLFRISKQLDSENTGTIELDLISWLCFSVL
Briefly: m-calpain protease blockers, concentration series – biochemical, fluorogenic peptide substrate, dose response (AID 1420). The test is classed as functional.

Test [2] addresses NACHT, LRR and PYD domains-containing protein 1 (Homo sapiens, UniProt Q9C000). Kind of test: NALP1 inhibitors in yeast, dose response, luminescent (AID 488860). The test is classed as functional.
Test [3] deals with NACHT, LRR and PYD domains-containing protein 3 (Homo sapiens, UniProt Q96P20). Briefly: NALP3 inhibitors in yeast, dose response, luminescent (AID 488799). The test is classed as functional.
The test system of a further test is H4. Briefly: Luminescence Cell-Based Dose Response HTS to Identify Activators of 5'UTR Stem-Loop Driven Prion Protein mRNA Translation in H4 Neuroglioblastoma Cells. [Related pubchem assays: 1829 (Project Summary), 1814 (Primary HTS)]. Particulars: Homo sapiens. In kind it is functional.
Test [4] can be described thus: Luminescence Cell-Based Dose Confirmation HTS to Identify Activators of 5'UTR Stem-Loop Driven Alpha-Synuclein mRNA Translation in H4 Neuroglioblastoma Cells. [Related pubchem assays: 1829 (Project Summary), 1814 (Primary HTS)]. In kind it is functional.
A short description of test [5]: Luminescence Cell-Based Dose Response HTS to Identify Activators of Luciferase Translation or Activity in H4 […] Cells. [Related pubchem assays: 1829 (Project Summary), 1814 (Primary HTS)]. The test is classed as functional.
A further test has as its target CAAX prenyl protease 2 (Saccharomyces cerevisiae S288c, UniProt Q03530). In kind it is biochemical.
In a further test the target is Trypsin (Sus scrofa, UniProt P00761). Kind of test: trypsin protease activity blockade – biochemical, quenched peptide fluorescence, cherry-pick, selectivity assay for Rce1 protease inhibitor project, dose response (AID 488789).
Test [6] has as its target T2, DNA dC->dU-editing enzyme APOBEC-3A (Homo sapiens, UniProt P31941). Kind of test: A3A deaminase inhibition for selectivity – biochemical, dose response (AID 504722). The test is classed as functional.
The target in test [7] is T3, DNA dC->dU-editing enzyme APOBEC-3G (Homo sapiens, UniProt Q9HC16). Briefly: Dose Response confirmation of small molecule APOBEC3G DNA Deaminase Inhibitors via a fluorescence-based single-stranded DNA deaminase assay. [Related pubchem assays (depositor defined):AID493012, AID493028]. In kind it is functional.
The target of test [8] is Cystic fibrosis transmembrane conductance regulator/Golgi-associated PDZ and coiled-coil motif-containing protein (Homo sapiens, UniProt P13569+Q9HD26). Kind of test: potency against CAL PDZ-peptide interaction – biochemical, fluorescence polarization, Cerulean-tagged CAL PDZ, cherry-picks, dose response (AID 504773).
The target of the next test is T4, Coagulation factor XII (Homo sapiens, UniProt P00748).
T4 sequence (P00748 whole entry): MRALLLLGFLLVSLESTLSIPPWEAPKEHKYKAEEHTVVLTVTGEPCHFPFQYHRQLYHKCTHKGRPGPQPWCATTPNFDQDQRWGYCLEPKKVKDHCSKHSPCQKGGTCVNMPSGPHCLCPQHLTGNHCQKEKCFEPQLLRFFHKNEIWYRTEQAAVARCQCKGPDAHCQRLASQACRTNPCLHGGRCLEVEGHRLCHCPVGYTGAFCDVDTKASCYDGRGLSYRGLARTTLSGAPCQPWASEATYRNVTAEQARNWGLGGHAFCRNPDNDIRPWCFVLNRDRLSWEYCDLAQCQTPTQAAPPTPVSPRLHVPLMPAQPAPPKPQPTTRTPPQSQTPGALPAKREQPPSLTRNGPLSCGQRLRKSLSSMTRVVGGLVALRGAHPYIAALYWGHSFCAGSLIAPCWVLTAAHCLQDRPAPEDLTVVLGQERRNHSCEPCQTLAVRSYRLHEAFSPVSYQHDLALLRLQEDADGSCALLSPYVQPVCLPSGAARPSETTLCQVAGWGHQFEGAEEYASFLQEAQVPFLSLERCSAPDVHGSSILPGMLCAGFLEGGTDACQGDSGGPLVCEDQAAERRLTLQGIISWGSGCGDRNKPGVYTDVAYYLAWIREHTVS
Kind of test: activated coagulation factor XII inhibitor potency, concentration-effect curve, cell-free (AID 716). The test is classed as functional.

Another test deals with Cytochrome P450 2C19 (Homo sapiens, UniProt P33261). Briefly: Cytochrome panel assay with activity outcomes. Panel member name: p450-cyp2c19 Compounds with AC50 equal or less than 10 uM are considered active. The test is classed as functional. Particulars: read-out: AC50.
Test [9] deals with Intestinal-type alkaline phosphatase (Homo sapiens, UniProt P09923). Briefly: Dose Response confirmation of uHTS hits from a small molecule inhibitors of human intestinal alkaline phosphatase via a luminescent assay. [Related pubchem assays (depositor defined):AID2544, AID2574]. The test is classed as functional.
In the next test the target is Cytochrome P450 2C9 (Homo sapiens, UniProt P11712).
The next test deals with Cytochrome P450 2D6 (Homo sapiens, UniProt P10635).
In another test the target is T5, Hexokinase HKDC1 (Homo sapiens, UniProt Q2TB90).
T5 sequence (Q2TB90 whole entry): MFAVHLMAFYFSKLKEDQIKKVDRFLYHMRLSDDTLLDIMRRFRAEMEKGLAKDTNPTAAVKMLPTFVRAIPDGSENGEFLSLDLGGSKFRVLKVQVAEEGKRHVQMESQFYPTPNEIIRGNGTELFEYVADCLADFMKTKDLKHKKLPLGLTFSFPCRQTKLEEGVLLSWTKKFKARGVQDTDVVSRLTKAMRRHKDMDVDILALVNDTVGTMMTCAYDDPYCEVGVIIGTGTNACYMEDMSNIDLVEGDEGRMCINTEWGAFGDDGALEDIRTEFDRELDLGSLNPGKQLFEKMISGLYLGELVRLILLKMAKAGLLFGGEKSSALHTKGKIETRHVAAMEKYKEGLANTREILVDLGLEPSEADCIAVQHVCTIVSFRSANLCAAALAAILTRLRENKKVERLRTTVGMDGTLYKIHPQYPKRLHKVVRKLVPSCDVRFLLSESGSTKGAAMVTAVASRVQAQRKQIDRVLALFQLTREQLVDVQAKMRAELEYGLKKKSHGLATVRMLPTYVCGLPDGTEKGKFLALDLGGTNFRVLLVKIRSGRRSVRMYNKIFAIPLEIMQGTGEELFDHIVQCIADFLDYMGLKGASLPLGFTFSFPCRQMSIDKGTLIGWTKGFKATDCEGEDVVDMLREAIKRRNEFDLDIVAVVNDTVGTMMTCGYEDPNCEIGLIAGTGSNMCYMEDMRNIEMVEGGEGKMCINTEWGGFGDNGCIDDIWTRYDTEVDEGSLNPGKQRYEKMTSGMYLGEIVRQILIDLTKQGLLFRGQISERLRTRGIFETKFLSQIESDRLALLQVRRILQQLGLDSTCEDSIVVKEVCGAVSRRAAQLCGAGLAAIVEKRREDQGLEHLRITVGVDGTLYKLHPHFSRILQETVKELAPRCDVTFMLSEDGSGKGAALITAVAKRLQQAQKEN
Briefly: activation of HKDC1 glucose phosphorylation – biochemical, W721R variant, dose response (AID 504730). In kind it is functional.

In the next test the target is Hexokinase-1 (Homo sapiens, UniProt P19367). Kind of test: HK1 enzyme activation by HKDC1 hits – biochemical, selectivity assay for HKDC1 activator project, dose response (AID 504762). In kind it is functional.
Test [10] addresses DNA damage-inducible transcript 3 protein (Mus musculus, UniProt P35639). The test is classed as functional, Cricetulus griseus.
Test [11] can be described thus: Luminescence Cell-Based Dose Retest to Confirm Inhibitors of Cancer Stem Cells. [Related pubchem assays (depositor defined):AID2717, AID2721]. In kind it is functional. Particulars: Homo sapiens.
Another test has as its system T-cell. Kind of test: loss of vesicle association with mouse CD8+ T cells – mouse 2C CD8+ T cells, flow cytometry, dose response (AID 485284). The test is classed as functional. On the technique in general: A flow cytometer gives signals particle by particle.
A short description of test [12]: NIH/3T3 cell viability loss – mouse embryonic fibroblasts, dry powder, set 2, cytotoxicity control, dose response (AID 493247). The test is classed as functional, cell-based. Particulars: Fibroblast.
Test [13] has as its target G-protein coupled receptor 55 (Homo sapiens, UniProt Q9Y2T6). Kind of test: selective activators of receptor GPR55 – imaging, U2OS cells, beta-arrestin-GFP redistribution, primary screen (AID 1961). The test is classed as functional.
The target in the next test is Hexokinase (Trypanosoma brucei, UniProt Q38C41). Kind of test: Confirmation assay for inhibitors of Trypanosoma brucei hexokinase 1-Analogue-first series. [Related pubchem assays (depositor defined):AID1430, AID1632, AID2516, AID2560, AID2579, AID2600, AID449725, AID492951]. In kind it is functional.
The target in test [14] is Voltage-dependent T-type calcium channel subunit alpha-1H (Homo sapiens, UniProt O95180). Briefly: human CACNA1H calcium influx blockade – cell-based, synthetic library set 1, calcium flux (AID 493022). The test is classed as functional. Background: Calcium flux is commonly read through the fluorescence of an indicator in the cells.
Test [15] addresses T3, DNA dC->dU-editing enzyme APOBEC-3G. In kind it is functional.
Test [16] concerns the target T2, DNA dC->dU-editing enzyme APOBEC-3A. Kind of test: Dose Response confirmation of small molecule APOBEC3A DNA Deaminase Inhibitors via a fluorescence-based single-stranded DNA deaminase assay. [Related pubchem assays (depositor defined):AID493011, AID493024]. The test is classed as functional.

T2 sequence (P31941 whole entry): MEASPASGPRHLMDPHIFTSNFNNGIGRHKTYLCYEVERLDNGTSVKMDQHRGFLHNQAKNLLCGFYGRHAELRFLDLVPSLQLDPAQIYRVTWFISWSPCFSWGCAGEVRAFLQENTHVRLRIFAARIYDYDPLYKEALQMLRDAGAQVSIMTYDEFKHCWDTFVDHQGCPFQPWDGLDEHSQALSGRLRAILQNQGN
T3 sequence (Q9HC16 whole entry): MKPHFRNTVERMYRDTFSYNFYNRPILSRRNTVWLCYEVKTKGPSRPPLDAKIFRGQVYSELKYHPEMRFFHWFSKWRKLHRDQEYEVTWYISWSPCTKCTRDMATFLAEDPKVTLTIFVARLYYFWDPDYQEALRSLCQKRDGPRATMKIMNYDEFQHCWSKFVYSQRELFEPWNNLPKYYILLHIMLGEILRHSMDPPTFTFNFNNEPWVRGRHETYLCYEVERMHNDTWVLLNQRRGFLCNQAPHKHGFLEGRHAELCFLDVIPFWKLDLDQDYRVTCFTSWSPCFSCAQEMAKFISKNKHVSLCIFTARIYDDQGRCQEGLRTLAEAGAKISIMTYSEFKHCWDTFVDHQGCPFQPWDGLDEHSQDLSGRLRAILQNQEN
Voltage-dependent T-type calcium channel subunit alpha-1H, sequence (O95180 whole entry): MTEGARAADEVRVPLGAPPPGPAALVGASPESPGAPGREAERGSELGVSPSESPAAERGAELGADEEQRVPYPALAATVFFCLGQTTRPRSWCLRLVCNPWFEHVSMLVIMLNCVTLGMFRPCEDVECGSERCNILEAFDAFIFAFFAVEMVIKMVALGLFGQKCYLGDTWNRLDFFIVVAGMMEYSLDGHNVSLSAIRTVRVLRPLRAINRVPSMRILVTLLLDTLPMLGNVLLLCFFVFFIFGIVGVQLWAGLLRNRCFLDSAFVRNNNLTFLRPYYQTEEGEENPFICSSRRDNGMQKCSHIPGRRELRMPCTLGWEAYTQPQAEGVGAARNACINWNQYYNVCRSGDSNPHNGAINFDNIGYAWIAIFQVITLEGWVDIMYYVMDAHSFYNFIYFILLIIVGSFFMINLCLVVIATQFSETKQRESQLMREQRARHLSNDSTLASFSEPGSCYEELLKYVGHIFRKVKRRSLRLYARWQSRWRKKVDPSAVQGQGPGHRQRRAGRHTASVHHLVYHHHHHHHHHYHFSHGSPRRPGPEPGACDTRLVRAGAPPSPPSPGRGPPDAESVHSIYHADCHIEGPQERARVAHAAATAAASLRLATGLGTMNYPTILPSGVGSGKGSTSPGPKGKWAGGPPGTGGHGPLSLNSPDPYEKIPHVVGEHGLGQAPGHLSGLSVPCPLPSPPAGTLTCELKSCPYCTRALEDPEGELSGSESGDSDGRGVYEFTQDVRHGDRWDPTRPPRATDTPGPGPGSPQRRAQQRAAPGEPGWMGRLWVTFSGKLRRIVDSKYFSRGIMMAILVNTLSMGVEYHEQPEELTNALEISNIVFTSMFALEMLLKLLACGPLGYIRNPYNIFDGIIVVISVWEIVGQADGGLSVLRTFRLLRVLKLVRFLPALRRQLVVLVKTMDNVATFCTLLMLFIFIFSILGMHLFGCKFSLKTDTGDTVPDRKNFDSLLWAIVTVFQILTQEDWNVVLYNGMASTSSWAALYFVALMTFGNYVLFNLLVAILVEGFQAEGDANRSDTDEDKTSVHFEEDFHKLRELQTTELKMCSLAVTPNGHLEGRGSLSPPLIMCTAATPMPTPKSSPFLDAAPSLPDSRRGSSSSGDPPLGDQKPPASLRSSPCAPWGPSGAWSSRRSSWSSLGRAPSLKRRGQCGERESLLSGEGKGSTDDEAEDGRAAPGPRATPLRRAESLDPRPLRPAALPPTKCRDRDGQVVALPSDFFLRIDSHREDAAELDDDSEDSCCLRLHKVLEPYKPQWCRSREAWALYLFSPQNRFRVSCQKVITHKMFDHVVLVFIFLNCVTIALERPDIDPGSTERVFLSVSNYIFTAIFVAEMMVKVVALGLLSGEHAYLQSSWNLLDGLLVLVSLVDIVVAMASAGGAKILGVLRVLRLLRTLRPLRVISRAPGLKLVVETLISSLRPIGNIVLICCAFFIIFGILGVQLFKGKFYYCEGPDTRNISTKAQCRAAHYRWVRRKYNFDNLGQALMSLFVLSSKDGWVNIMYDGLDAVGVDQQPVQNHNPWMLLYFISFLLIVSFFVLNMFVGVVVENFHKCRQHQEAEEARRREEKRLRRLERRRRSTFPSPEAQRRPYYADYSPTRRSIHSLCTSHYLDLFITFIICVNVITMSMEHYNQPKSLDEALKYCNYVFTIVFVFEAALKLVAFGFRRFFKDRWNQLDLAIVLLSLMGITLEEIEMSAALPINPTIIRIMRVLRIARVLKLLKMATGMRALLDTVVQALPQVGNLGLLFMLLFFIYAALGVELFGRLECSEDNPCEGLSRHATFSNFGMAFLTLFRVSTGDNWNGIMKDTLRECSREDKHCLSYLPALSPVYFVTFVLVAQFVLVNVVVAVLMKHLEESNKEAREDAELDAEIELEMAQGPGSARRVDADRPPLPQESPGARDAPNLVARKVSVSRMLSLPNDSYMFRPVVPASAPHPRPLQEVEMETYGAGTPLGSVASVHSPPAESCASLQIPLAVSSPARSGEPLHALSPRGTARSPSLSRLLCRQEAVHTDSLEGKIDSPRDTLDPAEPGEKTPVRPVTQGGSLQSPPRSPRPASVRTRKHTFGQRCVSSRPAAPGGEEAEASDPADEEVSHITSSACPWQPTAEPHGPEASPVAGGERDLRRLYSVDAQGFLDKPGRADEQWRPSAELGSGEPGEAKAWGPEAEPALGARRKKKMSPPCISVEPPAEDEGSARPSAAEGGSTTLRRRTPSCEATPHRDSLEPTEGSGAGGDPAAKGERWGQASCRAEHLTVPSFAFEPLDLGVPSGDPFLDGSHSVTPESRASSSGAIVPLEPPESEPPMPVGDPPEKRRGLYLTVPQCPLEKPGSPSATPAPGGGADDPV
CAAX prenyl protease 2, sequence (Q03530 whole entry): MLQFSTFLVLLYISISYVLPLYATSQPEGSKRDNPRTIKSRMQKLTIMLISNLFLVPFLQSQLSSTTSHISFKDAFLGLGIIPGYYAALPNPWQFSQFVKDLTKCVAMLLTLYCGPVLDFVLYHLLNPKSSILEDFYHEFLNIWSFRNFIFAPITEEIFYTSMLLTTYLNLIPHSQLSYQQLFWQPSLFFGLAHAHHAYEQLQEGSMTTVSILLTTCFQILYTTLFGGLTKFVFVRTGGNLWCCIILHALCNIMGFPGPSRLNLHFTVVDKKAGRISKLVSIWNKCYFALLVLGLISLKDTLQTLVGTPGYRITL
Cytochrome P450 2C9, sequence (P11712 whole entry): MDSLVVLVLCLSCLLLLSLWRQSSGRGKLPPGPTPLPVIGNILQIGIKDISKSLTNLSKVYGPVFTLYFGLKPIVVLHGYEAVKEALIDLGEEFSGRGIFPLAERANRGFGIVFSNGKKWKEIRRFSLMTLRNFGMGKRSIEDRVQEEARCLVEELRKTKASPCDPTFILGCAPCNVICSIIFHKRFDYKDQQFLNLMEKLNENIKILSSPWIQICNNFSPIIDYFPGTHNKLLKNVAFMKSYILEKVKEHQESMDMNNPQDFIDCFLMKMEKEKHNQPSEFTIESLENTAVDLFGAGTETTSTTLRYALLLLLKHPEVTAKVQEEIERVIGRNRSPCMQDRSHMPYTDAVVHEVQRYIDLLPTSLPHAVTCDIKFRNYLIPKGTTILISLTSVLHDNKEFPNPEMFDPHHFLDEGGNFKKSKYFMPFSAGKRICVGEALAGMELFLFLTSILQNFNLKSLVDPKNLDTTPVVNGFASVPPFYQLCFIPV
DNA damage-inducible transcript 3 protein, sequence (P35639 whole entry): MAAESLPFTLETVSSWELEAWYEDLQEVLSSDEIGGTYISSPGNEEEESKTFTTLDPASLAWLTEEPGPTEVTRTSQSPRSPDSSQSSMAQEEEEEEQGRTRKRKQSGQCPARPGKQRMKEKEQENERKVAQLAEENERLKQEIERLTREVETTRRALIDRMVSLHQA
Hexokinase, sequence (Q38C41 whole entry): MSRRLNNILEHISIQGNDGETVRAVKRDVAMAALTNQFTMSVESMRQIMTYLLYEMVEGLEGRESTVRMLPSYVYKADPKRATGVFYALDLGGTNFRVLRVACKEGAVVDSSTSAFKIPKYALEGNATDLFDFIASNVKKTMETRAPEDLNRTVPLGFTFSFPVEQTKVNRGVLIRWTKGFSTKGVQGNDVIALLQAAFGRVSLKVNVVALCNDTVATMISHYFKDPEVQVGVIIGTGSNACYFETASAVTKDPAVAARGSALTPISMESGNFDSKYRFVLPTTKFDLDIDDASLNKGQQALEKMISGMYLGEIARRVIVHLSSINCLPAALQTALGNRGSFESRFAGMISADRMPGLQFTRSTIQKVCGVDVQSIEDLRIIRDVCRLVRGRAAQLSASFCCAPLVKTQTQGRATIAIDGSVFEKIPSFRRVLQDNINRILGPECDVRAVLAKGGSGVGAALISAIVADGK
Cytochrome P450 2C19, sequence (P33261 whole entry): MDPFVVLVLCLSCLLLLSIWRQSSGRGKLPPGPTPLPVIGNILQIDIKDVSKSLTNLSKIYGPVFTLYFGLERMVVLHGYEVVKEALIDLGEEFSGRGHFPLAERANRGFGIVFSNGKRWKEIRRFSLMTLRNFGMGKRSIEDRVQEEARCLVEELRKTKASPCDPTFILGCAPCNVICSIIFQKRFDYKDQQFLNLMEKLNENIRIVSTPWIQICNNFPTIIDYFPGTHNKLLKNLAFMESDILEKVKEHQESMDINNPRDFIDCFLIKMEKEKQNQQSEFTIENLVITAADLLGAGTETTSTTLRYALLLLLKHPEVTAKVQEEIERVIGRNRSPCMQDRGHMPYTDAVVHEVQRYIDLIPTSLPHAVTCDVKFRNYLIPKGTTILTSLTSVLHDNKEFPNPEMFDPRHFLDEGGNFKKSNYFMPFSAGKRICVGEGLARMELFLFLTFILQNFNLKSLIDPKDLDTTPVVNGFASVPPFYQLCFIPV

On to `O=S(=O)(Nc1ccc(-n2cccc2)cc1)c1ccc(Cl)cc1Cl`, for which the IC50 in the test on Saccharomyces cerevisiae was 56.8 µM (active); in [1], 9.85 µM (not active); in test [2], 18.3 µM (active).

With `COc1ccc(NC(=O)C#Cc2ccccc2)cc1`, the IC50 in test [3] was 8.01 µM (active). The EC50 in the test on H4 is 22.1 µM (active); in test [4] it was 0.192 µM (active); in [5] it was 32.6 µM (active).

On to `COc1ccccc1-c1cc(C(F)(F)F)n2ncc(S(=O)(=O)c3ccccc3)c2n1`, for which the AC50 on CAAX prenyl protease 2 is 75.9 µM (active); on Trypsin, 13.1 µM (active).

In the case of `Sc1nnc(-c2ccc(Cl)cc2)n1CC1CCCO1` (stereo not drawn), the IC50 in [6] is > 100 µM (inactive); in test [7], 6.14 µM (active).

For `c1ccc(C(c2ccccc2)c2cccnc2)cc1`, the AC50 in [8] is 45.6 µM (active).

For the molecule `COc1ccccc1-n1c(S)nnc1CNC(=O)COc1ccccc1`, the IC50 at Coagulation factor XII was > 50 µM (inactive).

Regarding `O=c1c2c(-c3cccs3)csc2ncn1-c1ccc(Br)cc1`, the AC50 at Cytochrome P450 2C19 was 2.24 µM (inconclusive); on Cytochrome P450 2C9, 3.98 µM (inconclusive); at Cytochrome P450 2D6 it was 3.55 µM (inconclusive). The IC50 in test [9] was > 100 µM (inactive).

Turning to `Cn1c(=O)c2c(nc(NN/C=C3/C(=O)NC(=S)N(C4CCCCC4)C3=O)n2C)n(C)c1=O`, the EC50 at Hexokinase HKDC1 was > 80 µM (inactive); at Hexokinase-1, 75.9 µM (inactive).

Consider `NC(=O)CC(NC(=O)Cc1cccc2ccccc12)c1ccc(NCc2ccccc2)c([N+](=O)[O-])c1` (stereo not drawn), for which, in test [10], the “Absolute IC50 (CHOP)” value was 10 µM. In addition, the AC50 in [11] was 5.5 µM (active).

`COc1ccc2c(c1)C1NC(S)=NC(C)(O2)C1C(=O)Nc1ccc(Cl)cc1` (stereo not drawn): in the test on T-cell, the EC50 is 31.3 µM (inactive).

Consider `COc1cc2c(cc1OC)CN(C(=O)C1CCCN(Cc3ccccc3)C1)CC2` (stereo not drawn), for which the AC50 in test [12] is 52.7 µM (active).

Consider `CC(C)C[C@@H](COc1ccccc1)N1CCN(CCc2ccccc2)CCC1=O`, for which, in test [13], the EC50 is 2.69 µM (active).

In the case of `CC(C)(C)c1ccc(C(=O)Nc2cc(Cl)c(Cl)cc2C(=O)O)cc1`, the IC50 at Hexokinase is 1.36 µM (active).

Turning to `O=C(COc1ccc(F)cc1)Nc1nnc(-c2ccc(F)cc2)o1`, in test [14], the EC50 was 10 µM (active).

Consider `Cc1cc(N/N=C/c2ccc(O)cc2)nc(NS(=O)(=O)c2ccccc2)n1`, for which the IC50 was 72.6 µM (active) in test [15] and 21.9 µM (active) in test [16].
